Read-outs that look alike come from different tables or passages of the source.
Tests used:
[1] = Cytotoxicity in A549 cells (MTS/PMS); type: cell-based; details: human; A549 cells (Table 6)
Method: A similar protocol was used to assess cytotoxicity in A549 cells with the difference that cells were seeded at 2×10^4 cells/well.

[2] = system: DENV-1 Djibouti strain D1/H/IMTSSA/98/606; experiment: Antiviral activity against DENV-1 in Vero-B cells (viral RNA load by RT-qPCR); type: cell-based, Dengue virus
[3] = system: DENV-3 strain H87 prototype; experiment: Antiviral activity against DENV-3 in Vero-B cells (viral RNA load by RT-qPCR); type: cell-based, Dengue virus
[4] = system: DENV-2 NGC; experiment: Antiviral activity against DENV-2 NGC in A549 cells (viral RNA load by RT-qPCR); type: cell-based; details: Dengue virus, DENV2; DENV-2 in A549 cells (Table 6)
[5] = system: DENV-2 NGC; experiment: Antiviral activity against DENV-2 NGC in Vero-B cells (viral RNA load by RT-qPCR); type: cell-based, Dengue virus; details: DENV-2 in Vero-B cells, inhibition of viral RNA replication by 50% (Table 3)
[6] = in vitro; details: African green monkey; for CC50 at 4 days: uninfected quiescent Vero-B cells
[7] = system: DENV-4 strain Dak HD 34 460; experiment: Antiviral activity against DENV-4 in Vero-B cells (viral RNA load by RT-qPCR); type: cell-based, Dengue virus
[8] = system: uninfected quiescent Vero-B cells; experiment: Cytotoxic assay in uninfected quiescent Vero-B cells (MTS/PMS); details: 4 days (Table 3)
[9] = system: YFV-17D; experiment: microbe, parasite or virus in culture; type: cell-based; details: Yellow fever virus, Vero B
[10] = system: DENV-2 strain D2Y98P; experiment: Dengue mortality model in AG129 mice; type: in vivo; details: 60 mg/kg/day, sc, twice daily, 17 consecutive days; DENV-2 D2Y98P infected AG129 mice; p: 0.0017; FIG. 1

Compound | CC50 at 4 days [1] [µM] | EC50 ([2]; Dengue virus, DENV1, Vero B) [µM] | EC50 ([3]; Dengue virus, DENV3, Vero B) [µM] | EC50 [4] [µM] | EC50 ([5]; Dengue virus, DENV2, Vero B) [µM] | CC50 at 4 days [6] [µM] | EC50 ([7]; Dengue virus, DENV4, Vero B) [µM] | CC50 [8] [µM] | EC50 [9] [µM] | CC50 [6] [µM] | delay in virus-induced morbidity (day of euthanasia) [10] | EC50 [2] [µM] | EC50 [3] [µM] | EC50 [5] [µM] | EC50 [7] [µM]
COc1cc(CO)cc(NC(C(=O)c2c[nH]c3ccccc23)c2ccc(C)nc2)c1 (centres unmarked) [CPD-320] | > 124 | 0.96 | 1.17 | 0.006 | 0.07 | > 124 | 9.44 | – | – | – | – | – | – | – | –
COc1cccc(NC(C(=O)c2c[nH]c3ccccc23)c2nc3ccccc3o2)c1 (centres unmarked) [CPD-328] | 12 | 0.2 | 0.13 | 0.006 | 0.01 | – | 2.84 | 13 | – | – | – | – | – | – | –
COc1cc(NC(C(=O)c2c(C)[nH]c3ccccc23)c2ccccc2)cc(OC)c1 (centres unmarked) [CPD-012] | – | 4.42 | < 0.5 | – | 0.05 | 14 | – | – | < 0.5 | 12 | – | – | – | – | –
COc1cc(NC(C(=O)c2c[nH]c3ccccc23)c2cc3ccccn3n2)cc(OCCO)c1 (centres unmarked) [CPD-336] | > 123 | 0.26 | 0.35 | 0.005 | 0.01 | > 123 | 5.77 | – | – | – | – | – | – | – | –
COc1cccc(NC(C(=O)c2c[nH]c3ccccc23)c2ccc(F)cc2)c1 (centres unmarked) [CPD-149] | – | 2.88 | 4.01 | – | 0.03 | – | 5.72 | 14 | – | – | – | – | – | – | –
COc1cc(CO)cc(NC(C(=O)c2c[nH]c3ccc(F)cc23)c2cccnc2)c1 (centres unmarked) [CPD-334] | 85 | 1.29 | 0.81 | 0.024 | 0.07 | 122 | 16.8 | – | – | – | – | – | – | – | –
COc1cc(NC(C(=O)c2c[nH]c3ccccc23)c2ccccc2)cc(OC)c1 (centres unmarked) [CPD-002] | – | 0.54 | < 0.5 | – | 0.01 | – | 27.2 | 16 | 2.81 | 25 | – | – | – | – | –
COc1ccc(NC(C(=O)c2c[nH]c3ccccc23)c2ccccc2)cc1OC (centres unmarked) [CPD-001] | – | 1.6 | 29.4 | – | 0.08 | – | 4.45 | 29 | 9.16 | 43 | – | – | – | – | –
COc1cccc(NC(C(=O)c2c[nH]c3ccc(F)cc23)c2ccccc2)c1 (centres unmarked) [CPD-119] | – | 0.69 | 1.74 | – | 0.03 | – | 2.91 | 13 | – | – | – | – | – | – | –
COc1cccc(NC(C(=O)c2c[nH]c3ccccc23)c2ccc(C)cc2)c1 (centres unmarked) [CPD-139] | – | 0.65 | 0.46 | – | 0.02 | – | 3.81 | 20 | – | – | – | – | – | – | –
COc1cc(NC(C(=O)c2c[nH]c3ccccc23)c2cc3ccccn3n2)cc(OC)c1 (centres unmarked) [CPD-293] | > 117 | 0.06 | 0.04 | 0.003 | 0.001 | 65 | 1.15 | – | – | – | – | – | – | – | –
COc1cc(CO)cc(NC(C(=O)c2c[nH]c3ccccc23)c2ccccc2)c1 (centres unmarked) [CPD-262] | – | 2.33 | 6.73 | – | 0.06 | – | 8.49 | 71 | – | – | – | – | – | – | –
COc1cc(NC(C(=O)c2c[nH]c3ccccc23)c2cnc(OC)cn2)cc(OC)c1 (centres unmarked) [CPD-294] | 61 | 0.23 | 0.67 | 0.015 | 0.02 | 41 | 7.21 | – | – | – | – | – | – | – | –
COc1cccc(NC(C(=O)c2csc3ccccc23)c2ccccc2)c1 (centres unmarked) [CPD-193] | – | 23.7 | 18.9 | – | 0.72 | > 133 | 5.44 | – | < 0.5 | > 133 | – | – | – | – | –
COc1cccc(NC(C(=O)c2c[nH]c3cccc(F)c23)c2ccccc2)c1 (centres unmarked) [CPD-230] | – | 0.35 | 3.53 | – | 0.12 | – | 2.56 | 21 | – | – | – | – | – | – | –
COc1cc(NC(C(=O)c2cn(C)c3ccccc23)c2ccccc2)cc(OC)c1 (centres unmarked) [CPD-338] | > 124 | 0.35 | 0.25 | 0.026 | 0.01 | > 124 | 1.82 | – | – | – | – | – | – | – | –
COc1cc(NC(C(=O)c2c[nH]c3ccccc23)c2ccc(C)nc2)cc(OC)c1 (centres unmarked) [CPD-346] | 60 | – | 0.04 | 0.008 | 0.01 | 54 | 1.27 | – | – | – | – | – | – | – | –

Compound | CC50 at 4 days [1] [µM] | EC50 ([2]; Dengue virus, DENV1, Vero B) [µM] | EC50 ([3]; Dengue virus, DENV3, Vero B) [µM] | EC50 [4] [µM] | EC50 ([5]; Dengue virus, DENV2, Vero B) [µM] | CC50 at 4 days [6] [µM] | EC50 ([7]; Dengue virus, DENV4, Vero B) [µM] | CC50 [8] [µM] | EC50 [9] [µM] | CC50 [6] [µM] | delay in virus-induced morbidity (day of euthanasia) [10] | EC50 [2] [µM] | EC50 [3] [µM] | EC50 [5] [µM] | EC50 [7] [µM]
COc1cc(NC(C(=O)c2c[nH]c3cc(Cl)ccc23)c2ccccc2)cc(OC)c1 (centres unmarked) [CPD-013] | – | 0.09 | < 0.5 | – | 0.002 | 9 | 1.81 | – | 0.52 | 11 | – | – | – | – | –
COc1cc(NC(C(=O)c2c[nH]c3ccc(F)cc23)c2ccccc2)cc(OC)c1 (centres unmarked) [CPD-131] | 11 | 0.25 | 0.68 | 0.008 | 0.01 | – | 4.77 | 13 | – | – | – | – | – | – | –
COc1cc(NC(C(=O)c2c[nH]c3ccccc23)c2ccccc2)cc(OCCO)c1 (centres unmarked) [CPD-255] | 59 | 0.75 | 1.66 | 0.029 | 0.04 | 63 | 3.36 | – | – | – | – | – | – | – | –
COc1cccc(NC(C(=O)c2c[nH]c3ccccc23)c2cccnc2)c1 (centres unmarked) [CPD-019] | – | 0.67 | 2.18 | – | 0.14 | – | 8.38 | 71 | 6.18 | 56 | – | – | – | – | –
COc1cccc(NC(C(=O)c2c[nH]c3cccc(Cl)c23)c2ccccc2)c1 (centres unmarked) [CPD-053] | – | 1.64 | 11.2 | – | 0.02 | – | 7.11 | 18 | – | – | – | – | – | – | –
COc1cc(NC(C(=O)c2c[nH]c3ccccc23)c2ccc(F)cc2)cc(OC)c1 (centres unmarked) [CPD-235] | – | 0.09 | 0.27 | – | 0.004 | – | 3.02 | 13 | – | – | – | – | – | – | –
COc1cc(NC(C(=O)c2c[nH]c3ccccc23)c2ccc(F)cc2)cc(OCCO)c1 (centres unmarked) [CPD-350] | 63 | – | 0.28 | 0.008 | 0.01 | – | 3.11 | 46 | – | – | – | – | – | – | –
COc1cccc(NC(C(=O)c2c[nH]c3ccccc23)c2ccc(C#N)cc2)c1 (centres unmarked) [CPD-036] | – | 2.43 | 3.42 | – | 0.04 | – | 5.85 | 14 | – | – | – | – | – | – | –
COc1cncc(NC(C(=O)c2c[nH]c3cc(F)ccc23)c2ccc(OC)nc2)c1 (centres unmarked) [CPD-242] | 47 | 0.4 | 0.57 | 0.01 | 0.04 | 59 | 7.87 | – | – | – | highly significant delay | – | – | – | –
COc1cc(NC(C(=O)c2nn(C)c3ccccc23)c2ccc(F)cc2)cc(OC)c1 (centres unmarked) [CPD-340] | > 119 | 0.18 | 0.24 | 0.027 | 0.02 | > 119 | 6.39 | – | – | – | – | – | – | – | –
COc1cccc(NC(C(=O)c2c[nH]c3ccccc23)c2ccccc2)c1 (centres unmarked) [CPD-010] | 16 | 1.29 | 3.54 | 0.066 | 0.07 | – | 5.43 | 18 | < 0.6 | 12 | – | – | – | – | –
COc1cncc(NC(C(=O)c2c[nH]c3ccccc23)c2ccccc2)c1 (single isomer, unassigned) [CPD-300] | – | – | – | – | – | – | – | 50 | – | – | – | 5.29 | 21.1 | 1.29 | 4.13
COc1cccc(NC(C(=O)c2c[nH]c3ccccc23)c2cc3ccccn3n2)c1 (single isomer, unassigned) [CPD-324] | – | – | – | – | – | – | 5.32 | 30 | – | – | – | 0.27 | 0.19 | 0.01 | –
COc1cc(NC(C(=O)c2c[nH]c3ccccc23)c2ccccc2)cc(OC)c1 (single isomer, unassigned) [CPD-327] | – | – | – | – | – | – | – | 11 | – | – | – | 1.42 | 4.61 | 0.35 | 2.25
COc1cccc(NC(C(=O)c2c[nH]c3ccccc23)c2ccc(C)nc2)c1 (centres unmarked) [CPD-226] | – | 0.92 | 0.81 | – | 0.07 | – | 8.64 | 73 | – | – | – | – | – | – | –
COc1cc(NC(C(=O)c2cn(C)c3ccccc23)c2cccnc2)cc(OC)c1 (centres unmarked) [CPD-360] | > 124 | – | – | 0.027 | 0.04 | > 124 | 5.78 | – | – | – | – | – | – | – | –
COc1cc(NC(C(=O)c2c[nH]c3ccccc23)c2cccnc2)cc(OC)c1 (centres unmarked) [CPD-236] | 65 | 0.17 | 0.31 | 0.019 | 0.02 | – | 2.45 | 69 | – | – | – | – | – | – | –

Source: patent US12012411B2, “Viral replication inhibitors” (Katholieke Universiteit Leuven, priority 2011, dated 2024)
